Laboratory results from ChEMBL document CHEMBL5725686, “G protein-coupled receptor kinase 2 inhibitors and methods for use of the same” (2018).

Experiments:
[1] = biological target: G protein-coupled receptor kinase 5 (Homo sapiens, UniProt P34947); assay: The low salt concentration and DDM were used to maximize GRK activity and disrupt small molecule aggregates from forming, respectively. […] Data was analyzed and inhibition curves were fit via GraphPad Prism.
Rhodopsin kinase GRK1 = biological target: T1, Rhodopsin kinase GRK1 (Homo sapiens, UniProt Q15835); assay: The low salt concentration and DDM were used to maximize GRK activity and disrupt small molecule aggregates from forming, respectively. Reactions were quenched with SDS loading buffer, separated via SDS-PAGE, dried and exposed with a phosphorimaging screen prior to quantification via Typhoon imager, as previously reported (see Thal et al., ACS Chemical Biology 7(11):1830-1839 (2012)). Data was analyzed and inhibition curves were fit via GraphPad Prism.
T1 sequence (Q15835 whole entry): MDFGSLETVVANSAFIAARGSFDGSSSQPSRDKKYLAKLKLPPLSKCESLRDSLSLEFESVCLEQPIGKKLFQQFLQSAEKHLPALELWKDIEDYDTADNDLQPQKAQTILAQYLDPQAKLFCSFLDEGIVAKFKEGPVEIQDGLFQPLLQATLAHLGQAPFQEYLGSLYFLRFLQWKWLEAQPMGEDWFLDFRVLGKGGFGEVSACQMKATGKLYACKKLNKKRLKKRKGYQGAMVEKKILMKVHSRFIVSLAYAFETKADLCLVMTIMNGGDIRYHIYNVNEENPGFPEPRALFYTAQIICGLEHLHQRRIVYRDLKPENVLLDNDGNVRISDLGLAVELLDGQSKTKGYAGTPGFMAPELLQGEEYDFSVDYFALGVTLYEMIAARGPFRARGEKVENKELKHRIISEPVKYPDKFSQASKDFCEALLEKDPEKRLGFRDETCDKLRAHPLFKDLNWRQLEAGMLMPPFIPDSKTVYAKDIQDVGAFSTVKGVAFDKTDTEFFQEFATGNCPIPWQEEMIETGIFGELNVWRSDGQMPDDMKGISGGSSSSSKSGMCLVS

Sequence of G protein-coupled receptor kinase 5 (P34947 whole entry): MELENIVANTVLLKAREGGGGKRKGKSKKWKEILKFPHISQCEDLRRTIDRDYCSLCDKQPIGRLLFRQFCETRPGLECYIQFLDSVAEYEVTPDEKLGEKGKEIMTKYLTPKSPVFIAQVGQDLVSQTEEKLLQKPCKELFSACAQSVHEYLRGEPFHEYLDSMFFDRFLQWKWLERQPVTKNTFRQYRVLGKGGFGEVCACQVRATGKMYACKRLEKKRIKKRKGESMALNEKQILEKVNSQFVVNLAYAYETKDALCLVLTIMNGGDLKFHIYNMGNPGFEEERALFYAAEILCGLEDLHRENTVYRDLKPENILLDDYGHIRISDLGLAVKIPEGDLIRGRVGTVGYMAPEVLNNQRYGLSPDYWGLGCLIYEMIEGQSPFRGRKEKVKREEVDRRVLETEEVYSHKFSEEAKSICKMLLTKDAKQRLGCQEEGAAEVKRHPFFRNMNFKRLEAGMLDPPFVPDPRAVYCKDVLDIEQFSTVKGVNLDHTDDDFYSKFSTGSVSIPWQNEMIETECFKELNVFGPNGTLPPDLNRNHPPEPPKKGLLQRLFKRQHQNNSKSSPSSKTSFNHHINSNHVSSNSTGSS

CC1=C(C(=O)Nc2ccc3[nH]ncc3c2)C(c2ccc(F)c(C(=O)NCc3nccc4ccccc34)c2)NC(=O)N1 (centres undefined)
IC50 [1]: 5.4 µM

C#CCN(CC(C)C)C(=O)Cc1cc(C2NC(=O)NC(C)=C2C(=O)Nc2ccc3[nH]ncc3c2)ccc1F (centres undefined)
IC50 [1]: 8.9 µM

C#CCN(Cc1ccco1)C(=O)Cc1cc(C2NC(=O)NC(C)=C2C(=O)Nc2ccc3[nH]ncc3c2)ccc1F (centres undefined)
IC50 [1]: 4.4 µM

CC1=C(C(=O)Nc2ccc3[nH]ncc3c2)C(c2ccc(F)c(CC(=O)N(CCO)Cc3ccco3)c2)NC(=O)N1 (centres undefined)
IC50 (Rhodopsin kinase GRK1): 21 µM
